Assay [1] addresses IMP-1 (Serratia marcescens, UniProt P52699). The experiment in a line: biochemical. The format is biochemical. The note with it: IMP-1 enzyme, CCF2-FA substrate; read-out: IMP-1 IC50.
The target in assay [2] is VIM-1 (Pseudomonas aeruginosa (strain ATCC 15692 / DSM 22644 / CIP 104116 / JCM 14847 / LMG 12228 / 1C / PRS 101 / PAO1), UniProt A0A0F7KYQ8). In words: Enzyme activity: determination of IC50, fluorescence assay with CCF2-FA substrate (VIM-1). The assay is classed as biochemical. The note with it: CCF2-FA substrate.
Assay [3] deals with NDM-1 (Klebsiella pneumoniae, UniProt C7C422). In words: biochemical. The assay is classed as biochemical. Particulars: NDM-1 enzyme, CCF2-FA substrate; read-out: NDM-1 IC50.
Chain of NDM-1 (C7C422 whole entry, looked up, species assumed): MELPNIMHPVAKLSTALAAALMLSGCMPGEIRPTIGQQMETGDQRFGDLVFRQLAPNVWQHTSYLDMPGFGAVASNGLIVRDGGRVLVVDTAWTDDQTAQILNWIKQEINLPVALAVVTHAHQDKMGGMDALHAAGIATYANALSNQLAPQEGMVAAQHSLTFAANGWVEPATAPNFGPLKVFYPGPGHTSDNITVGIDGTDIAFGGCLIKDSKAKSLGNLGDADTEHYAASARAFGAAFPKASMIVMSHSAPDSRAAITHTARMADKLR
Assay [4] concerns Escherichia coli expressing NDM-1 (CLB30016). The experiment in a line: Antibiotic potentiation activity: synergistic concentration (MITC95) with imipenem, OD600 growth. The assay is classed as cell-based. The note with it: (CLB30016, NDM-1), 95% growth inhibition. In a few lines: (§1)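 Test compound was combined with 4 μg/ml imipenem (or optionally 1 μg/ml), or with no antibiotic, against saline-suspended colonies diluted 1:100 in 1.1×CAMHB. Strains were E. coli NDM-1, S. marcescens IMP-1 and K. pneumoniae VIM-1. Plates were incubated 22–24 h at 35 °C before absorbance (OD600) readout.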

In assay [5] the test system is Serratia marcescens expressing IMP-1 (CL5741). The description is as above. The assay is classed as cell-based. Particulars: Serratia marcescens CL5741 (IMP-1), 95% growth inhibition. In a few lines:
as §1

For assay [6], the system named is Klebsiella pneumoniae expressing VIM-1 (IHMA599644). The assay is described as above. The note with it: Klebsiella pneumoniae IHMA599644 (VIM-1), 95% growth inhibition. The assay is classed as cell-based. The essentials: as §1
Where [7] appears, read: VIM-1 enzyme, read-out: VIM-1 IC50.

SMILES strings stand for the structures. Where two headings read alike, the source gives them in different places.

As usually defined, the IC50 is the concentration needed to halve the response being measured.

Chain of IMP-1 (P52699 whole entry, looked up): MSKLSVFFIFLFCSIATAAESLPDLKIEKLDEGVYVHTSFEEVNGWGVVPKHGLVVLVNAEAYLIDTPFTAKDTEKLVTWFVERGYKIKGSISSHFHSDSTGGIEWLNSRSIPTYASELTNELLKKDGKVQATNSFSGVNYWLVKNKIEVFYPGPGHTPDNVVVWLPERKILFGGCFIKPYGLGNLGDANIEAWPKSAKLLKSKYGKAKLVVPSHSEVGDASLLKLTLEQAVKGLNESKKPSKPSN

With `NS(=O)(=O)c1cccc(-c2ccc(NCC3CCN3)nc2)c1-c1nnn[nH]1` (stereo not drawn) [Example 638, 3-[6-(azetidin-2-ylmethylamino)-3-pyridyl]-2-(1H-tetrazol-5-yl)benzenesulfonamide], the IC50 in assay [1] is 596 nM; in assay [2] (VIM-1 IC50, VIM-1 enzyme), 181 nM; in assay [3], 55 nM. Also, the “Escherichia coli MITC95” value in assay [4] came out at 0.7813 µM. Further, the “Serratia marcescens MITC95” value in assay [5] amounted to 12.5 µM. Moreover, in assay [6], the “Klebsiella pneumoniae MITC95” value was determined as 12.5 µM.

`NCCNc1nc2c(-c3cccc(S(N)(=O)=O)c3-c3nn[nH]n3)cccc2s1` [Example 639, 3-[2-(2-aminoethylamino)-1,3-benzothiazol-4-yl]-2-(2H-tetrazol-5-yl)benzenesulfonamide]: the IC50 in assay [1] was found to be 187 nM; in assay [2] (setting [7]) it was 10.5 nM; in assay [3], 1.98 nM. For the same compound, in assay [4], the “Escherichia coli MITC95” value was 1.563 µM. For the same compound, the “Serratia marcescens MITC95” value in assay [5] amounted to 25 µM. The “Klebsiella pneumoniae MITC95” value in assay [6] came out at 6.25 µM.

Take `CN(C)CCNc1nc2c(-c3cccc(S(N)(=O)=O)c3-c3nn[nH]n3)cccc2s1` [Example 640, 3-[2-[2-(dimethylamino)ethylami-no]-1,3-benzothiazol-4-yl]-2-(2H-tetrazol-5-yl)benzenesulfonamide]: the IC50 came to 194 nM in assay [1], 9.84 nM in assay [2] (setting [7]) and 0.855 nM in assay [3]. For the same compound, the “Escherichia coli MITC95” value in assay [4] turned out to be 1.563 µM. Also, the “Serratia marcescens MITC95” value in assay [5] is 100 µM. Moreover, the “Klebsiella pneumoniae MITC95” value in assay [6] came out at 100 µM.

Turning to `NS(=O)(=O)c1cccc(-c2cccc3sc(N[C@H]4CC[C@H](N)CC4)nc23)c1-c1nnn[nH]1` [Example 641, 3-[2-[(4-aminocyclohexyl)amino]-1,3-benzothiazol-4-yl]-2-(1H-tetrazol-5-yl)benzenesulfonamide], the figures for the IC50 in assay [1], in assay [2] (setting [7]) and in assay [3] were 26.5 nM, 4.46 nM and 1.02 nM, respectively. Further, the “Escherichia coli MITC95” value in assay [4] came out at 6.25 µM. Also, in assay [5], the “Serratia marcescens MITC95” value stood at 25 µM. Further, the “Klebsiella pneumoniae MITC95” value in assay [6] is 25 µM.

For the compound `NCCCCNc1nc2c(-c3cccc(S(N)(=O)=O)c3-c3nnn[nH]3)cccc2s1` [Example 642, 3-[2-(4-aminobutylamino)-1,3-benzothiazol-4-yl]-2-(1H-tetrazol-5-yl)benzenesulfonamide], the IC50 in assay [1] came to 51.9 nM; in assay [2] (setting [7]), 9 nM; in assay [3] it was 1.01 nM. For the same compound, the “Escherichia coli MITC95” value in assay [4] was determined as 1.563 µM. Further, the “Serratia marcescens MITC95” value in assay [5] amounted to 25 µM. For the same compound, in assay [6], the “Klebsiella pneumoniae MITC95” value was found to be 50 µM.

Turning to `NCCCNc1nc2c(-c3cccc(S(N)(=O)=O)c3-c3nnn[nH]3)cccc2s1` [Example 643, 3-[2-(3-aminopropylamino)-1,3-benzothiazol-4-yl]-2-(1H-tetrazol-5-yl)benzenesulfonamide], the IC50 is 101 nM in assay [1], 12.3 nM in assay [2] (setting [7]) and 2.34 nM in assay [3]. The “Escherichia coli MITC95” value in assay [4] is 1.563 µM. For the same compound, in assay [5], the “Serratia marcescens MITC95” value came out at 25 µM. For the same compound, the “Klebsiella pneumoniae MITC95” value in assay [6] is 25 µM.

In the case of `NCCCCCNc1nc2c(-c3cccc(S(N)(=O)=O)c3-c3nnn[nH]3)cccc2s1` [Example 644, 3-[2-(5-aminopentylamino)-1,3-benzothiazol-4-yl]-2-(1H-tetrazol-5-yl)benzenesulfonamide], the IC50 in assay [1] worked out at 32.4 nM; in assay [2] (VIM-1 IC50, VIM-1 enzyme), 13.8 nM; in assay [3], 1.34 nM. For the same compound, in assay [4], the “Escherichia coli MITC95” value worked out at 4.688 µM. The “Serratia marcescens MITC95” value in assay [5] turned out to be 37.5 µM. Further, in assay [6], the “Klebsiella pneumoniae MITC95” value was 75 µM.

As to `CN(CCCCN)c1nc2c(-c3cccc(S(N)(=O)=O)c3-c3nnn[nH]3)cccc2s1` [Example 645, 3-[2-[4-aminobutyl(methyl)amino]-1,3-benzothiazol-4-yl]-2-(1H-tetrazol-5-yl)benzenesulfonamide], the IC50 in assay [1] worked out at 88.8 nM; in assay [2] (VIM-1 IC50, VIM-1 enzyme), 5.29 nM; in assay [3] it was 1.16 nM. In assay [4], the “Escherichia coli MITC95” value turned out to be 1.563 µM. Also, in assay [5], the “Serratia marcescens MITC95” value is 100 µM. In addition, the “Klebsiella pneumoniae MITC95” value in assay [6] came out at 50 µM.

Values taken from patent US9708336B2, “Metallo-beta-lactamase inhibitors” (priority 2014, dated 2017).
